In PubChem BioAssay AID179 (DTP/NCI, 2004):
Activity calls are given as the source filed them.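 How the source made its calls: active means compounds giving half or more protection of infected cells from virus-caused growth loss, again on retest; inactive means the rest.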

Test system: CEM cells HIV-1 protection, formazan growth assay
Test: NCI AIDS Antiviral Assay
Conditions: for IC50: measured here: growth of uninfected CEM cells
How it was run: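 Soluble formazan readout of cell growth; CEM cells ± HIV-1; 5 drug concs. ≥50% protection → retest; ≥50% again = moderately active; reproducible 100% = confirmed active.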

Row | SMILES | EC50 | IC50 | outcome
1 | COP(=O)(OC)C(=NCc1ccccc1)NNc1ccc([N+](=O)[O-])cc1 | > 200 µM | 191 µM | –
2 | COC(=O)C(=O)C(C(=O)C(=O)Nc1ccc([N+](=O)[O-])cc1C#N)c1nc2ccc([N+](=O)[O-])cc2[nH]c1=O (centres undefined) | > 490 µM | 209 µM | –
3 | CC(=O)OC[C@H]1O[C@@H](O[C@H]2[C@H](OC(C)=O)C=CO[C@@H]2COC(C)=O)C(OC(C)=O)[C@H]2OC(C)(C)O[C@H]21 (some centres undefined) | > 200 µM | 69.2 µM | –
4 | CCCCP(CCCC)(CCCC)=C(C(=O)OC)C(C(=O)OC)=C1SC(C(=O)OC)=C(C(=O)OC)S1 | > 200 µM | 33.1 µM | –
5 | CCSC1=C(C)N(C=NC(C)(C)C)CC1 | > 1100 µM | > 1100 µM | –
6 | COc1cc(C(c2cc3c(cc2O)OCO3)N2CCCC2)cc(OC)c1OC (centres undefined) | > 200 µM | 7.76 µM | –
7 | CP(=O)(CCSc1ccccc1)c1ccccc1 (centres undefined) | > 661 µM | > 661 µM | –
8 | CCN1CCC(O)(c2ccc([N+](=O)[O-])cc2)C(C(=O)c2ccc([N+](=O)[O-])cc2)C1 (centres undefined) | > 200 µM | 33.1 µM | –
9 | COc1cc(C(F)(F)F)nc(SC)n1 | > 200 µM | > 200 µM | –
10 | CCOC(=O)C1(C)CCCc2sc(N)c(C#N)c21 (centres undefined) | > 200 µM | > 200 µM | –
11 | CCCCC(C(=O)CCC(=O)Nc1ccc(Cl)cc1)C(=O)C(C)C (centres undefined) | > 186 µM | > 186 µM | –
12 | COc1c(F)c(F)c(/C(O)=C\c2nc3ccccc3[nH]c2=O)c(F)c1F | > 200 µM | 195 µM | –
13 | O/C(=C\c1nc2ccccc2nc1NC12CC3CC(CC(C3)C1)C2)c1ccc(Br)cc1 | > 200 µM | > 200 µM | –
14 | O=C(CNc1ccccc1C(=O)O)Nn1cnc2ccc(S(=O)(=O)Nc3ccccc3C(=O)O)cc2c1=O | > 200 µM | > 200 µM | –
15 | Nn1c(-c2ccccc2)n[nH]c1=O | > 200 µM | > 200 µM | –
16 | O=c1ssc2ccccc12 | > 200 µM | 120 µM | –
17 | N#CCCN(CCC#N)c1ccc(/C=C2\N=C(c3ccccc3)N(c3ccc(C(=O)O)cc3)C2=O)cc1 | > 200 µM | 33.9 µM | –
18 | C=C(C)Cn1c(N)c(N=O)c(=O)n(CC)c1=O | > 200 µM | 158 µM | –
19 | CCCCCCCCCCCCOC(=S)NCCCC | – | – | inactive
20 | Cc1ccc(NC(=S)Nc2c(C)n(C)n(-c3ccccc3)c2=O)cc1 | > 200 µM | > 200 µM | –
21 | O=C1/C(=C/c2ccc(O)cc2)Oc2cc(O)ccc21 | > 204 µM | 66.1 µM | –
22 | CC1(C)OC2CC3CC(OC3=O)C2O1 (centres undefined) | > 832 µM | > 832 µM | –

Row | SMILES | EC50 | IC50 | outcome
23 | O=C(Nc1cccc(C(F)(F)F)c1)C(=O)C(C(=O)c1ccc2ccccc2c1)C1OC(=O)c2ccccc21 (centres undefined) | > 50.1 µM | 21.9 µM | –
24 | CCOc1ccc(C(CN2CCOCC2)C(C)=O)cc1OC (centres undefined) | > 724 µM | 1.95 µM | –
25 | Cc1cc(C)c(C2=NO[C@@H]3C(=O)N(c4ccc(Cc5ccc(N6C(=O)[C@H]7C(c8c(C)cc(C)cc8C)=NO[C@H]7C6=O)cc5)cc4)C(=O)[C@H]23)c(C)c1 | > 7.59 µM | > 7.59 µM | –
26 | CC(C)c1ccc2nc3ccc(C(=O)NCCN4CCN(c5ccccc5)CC4)cn3c(=O)c2c1 | > 200 µM | 14.8 µM | –
27 | Cc1cn(C2C=CC(COP(=O)(OCC(=O)C(C)(C)C)OCC(=O)C(C)(C)C)O2)c(=O)[nH]c1=O (centres undefined) | 1.29 µM | > 200 µM | –
28 | [Au+].[Au+].[Au+].[c-]1nccn1Cc1ccccc1.[c-]1nccn1Cc1ccccc1.[c-]1nccn1Cc1ccccc1 | > 3.55 µM | > 3.55 µM | –
29 | COc1ccc(C(C#N)NC23CC4CC(CC(C4)C2)C3)cc1OC (centres undefined) | – | – | inactive
30 | CSCCC(NC(=O)OCc1ccccc1)P(=O)(O)c1ccccc1 (centres undefined) | > 200 µM | > 200 µM | –
31 | C/C=C/CSc1cc(NC(=S)c2ccsc2C)ccc1Cl | 0.263 µM | 12.3 µM | –
32 | O=C(O)CCCc1ccc2c(c1)C(C(=O)O)CC2 (centres undefined) | > 200 µM | > 200 µM | –
33 | COc1ccc(NC(=O)CC(=O)NN)cc1 | > 200 µM | > 200 µM | –
34 | CN1C(CC(O)c2ccccc2)CCCC1CC(O)(c1ccccc1)c1ccccc1 (centres undefined) | > 107 µM | 22.9 µM | –
35 | CCC[CH2][Sn]([CH2]CCC)([S]C1=NCCS1)[S]C1=NCCS1 | > 39.8 µM | 0.759 µM | –
36 | Cc1c(C)[n+](=O)c2ccc(/C=[N+](/[O-])CCO)cc2n1[O-] | – | – | inactive
37 | COC1/C=C/OC2(C)Oc3c(C)c(O)c4c(O)c(c(/C=N/NC5OC(COC(=O)c6ccccc6)C(OC(=O)c6ccccc6)C5OC(=O)c5ccccc5)c(O)c4c3C2=O)NC(=O)C(C)=C/C=C/C(C)C(O)C(C)C(O)C(C)C(OC(C)=O)C1C (centres undefined) | > 200 µM | 14.5 µM | –
38 | NNC(=S)N/N=C(\CCCC(=O)NCCc1ccccc1)CC(=O)c1ccccc1 | > 219 µM | > 219 µM | –
39 | CC1(C)OC(CCO)CN1C(=O)OCc1ccccc1 (centres undefined) | 195 µM | > 200 µM | –
40 | CC1=CC(=O)/C(=C/n2c(=S)sc3ccccc32)C(=O)O1 | > 200 µM | > 200 µM | –
41 | COc1cc(O)c2c(c1)O[C@@H]1OCC[C@H]21 | > 1200 µM | 871 µM | –
42 | CCN(CC)C1=CC(=O)c2nc(C)c(C)nc2C1=O | – | – | inactive
43 | N/C(=N/N=C/c1ccc2ccccc2n1)NO | – | – | inactive
44 | Nc1ccn(C2OC(CO)CC2F)c(=O)n1 (centres undefined) | 0.132 µM | 7.08 µM | –

Row | SMILES | EC50 | IC50 | outcome
45 | COc1cccc(NC(=O)c2c(SC)n[nH]c2N)c1 | > 200 µM | > 200 µM | –
46 | Cc1nn(C(=O)c2ccc(Cl)cc2)c2c1C(c1ccc([N+](=O)[O-])cc1)SC(N)=N2 (centres undefined) | > 200 µM | 97.7 µM | –
47 | CO[C@H]1C[C@H](n2cc(C)c(=O)[nH]c2=O)O[C@@H]1CO | > 200 µM | > 200 µM | –
48 | O=S(Cc1cc2c(cc1Br)OCO2)c1ccccc1 (centres undefined) | > 39.8 µM | > 39.8 µM | –
49 | CSc1nc(N)n(C(=O)c2ccc([N+](=O)[O-])cc2)n1 | > 13.5 µM | > 13.5 µM | –
50 | COc1cccc(CCn2c(N)c(C#N)c3ccc([N+](=O)[O-])cc3c2=O)c1 | > 200 µM | 1.12 µM | –
51 | Clc1ccc(/C=N\N2CCCCCC2)cc1Cl | > 200 µM | 35.5 µM | –
52 | NC1CNC(=O)c2cscc21 (centres undefined) | > 200 µM | > 200 µM | –
53 | Cc1c(C(=O)C/C(=N/NC(=O)CC#N)C(N)=O)[n+](=O)c2ccccc2n1[O-] | > 26.9 µM | > 26.9 µM | –
54 | COC(=O)CC1(C(=O)OC)C2CCCN2C2(C#N)c3ccccc3CCC12Br (centres undefined) | > 41.7 µM | > 41.7 µM | –
55 | C=CCOC(=O)Cn1cc(C)c(=O)[nH]c1=O | > 200 µM | > 200 µM | –
56 | O=C(O)c1c2c(cc3c1CC1(Cc4ccccc4C1)C3)CCC2 | > 200 µM | 45.7 µM | –
57 | CC1=NN(c2ccccc2)C(=O)C1N=Nc1ccc(Br)c(C)c1 (centres undefined) | – | – | inactive
58 | C[C@@H](c1ccccc1)n1c(N)c(-c2ccccn2)c2ccc([N+](=O)[O-])cc2c1=O | > 200 µM | 24 µM | –
59 | CC(C)(C)OC(=O)NC(Cc1cnc[nH]1)C(=O)N1CCCC1C(N)=O (centres undefined) | > 200 µM | > 200 µM | –
60 | O=C(O)c1c(Cl)c(Cl)c(Cl)c(Cl)c1-c1c2ccc(=O)c(O)c-2oc2c(O)c(O)ccc12 | > 83.2 µM | 51.3 µM | –
61 | O=Cc1ccc2c(c1)CC1(Cc3ccccc3C1)C2 | > 200 µM | 33.9 µM | –
62 | O=C(CC(C(=O)c1cccs1)c1cccs1)c1ccsc1 (centres undefined) | > 200 µM | 11.7 µM | –
63 | Nc1ccc2c3c(cccc13)C(=O)N(CCCBr)C2=O | > 200 µM | 7.08 µM | –
64 | Nc1cc(Cl)ccc1S | > 200 µM | 13.8 µM | –
65 | CCOC(=O)C(=Cc1ccc(N(C)C)cc1)C(=O)OCC | > 89.1 µM | 46.8 µM | –
66 | NCC(CS)C(=O)NC(CS)C(=O)NC(CS)C(=O)NCCNc1ccc(NCCNC(=O)C(CS)NC(=O)C(CS)NC(=O)C(CN)CS)c2c1C(=O)c1c(O)ccc(O)c1C2=O (centres undefined) | > 2 µM | 0.0126 µM | –

Row | SMILES | EC50 | IC50 | outcome
67 | CC(C)(C)c1ccc(-c2nnc(-c3cc(C#N)cc(-c4nnc(-c5ccc(C(C)(C)C)cc5)o4)c3)o2)cc1 | > 100 µM | > 100 µM | –
68 | COc1cc(CC(=O)O)c(C(=O)c2cccc([N+](=O)[O-])c2)cc1OC | > 200 µM | 37.2 µM | –
69 | NC(=O)N/N=C1\CCCc2ccccc21 | > 178 µM | > 178 µM | –
70 | O=C(OCC1CC(C2(O)CCCCC2)C(=O)O1)c1ccccc1 (centres undefined) | > 200 µM | > 200 µM | –
71 | CC(=O)O[C@]12CCCCCC1C1(O)C(O)CCCCC12 (some centres undefined) | > 200 µM | > 200 µM | –
72 | CN(C)Cc1cc(C(=O)/C=C/c2ccc(/C=C/C(=O)c3cc(CN(C)C)c(O)c(CN(C)C)c3)cc2)cc(CN(C)C)c1O | > 200 µM | 10 µM | –
73 | C=C(C(=O)O)C1CCC(CC/C=C(\C)CC/C=C(\C)CCC=C(C)C)CO1 (centres undefined) | > 200 µM | 6.17 µM | –
74 | Cc1ccc(SSc2ccc(C)cc2)cc1 | > 20 µM | 3.55 µM | inactive
75 | NC(N)=NS(=O)(=O)c1ccc(NC(=O)c2cccc3c(N)c4ccccc4nc23)cc1 | > 51.3 µM | 33.9 µM | –
76 | CC1(C)[C@@H]2CC[C@]13CC(=O)O[C@@H]3C2 | > 724 µM | > 724 µM | –
77 | CC1(C)CC(=O)C(Cc2ccccc2)(Cc2ccccc2)C(=O)C1 | – | – | inactive
78 | CN(C)C1=CC(=O)c2ccccc2C12CO2 (centres undefined) | > 234 µM | 41.7 µM | –
79 | COC(=O)[C@H]1C=C[C@@H](C)n2c(=O)c3cc4ccccc4cc3c(=O)n21 | > 21.4 µM | > 21.4 µM | –
80 | O=C1NC(N2CCOCC2)=N/C1=C\c1ccc(Cl)cc1 | > 200 µM | > 200 µM | –
81 | NC(=S)N/N=C1\CCCC1C(O)(C(F)(F)Cl)C(F)(F)Cl (centres undefined) | > 200 µM | 38.9 µM | –
82 | CC(=O)C1(N=Nc2ccc(S(=O)(=O)Nc3nnc(C)s3)cc2)CCOC1=O (centres undefined) | > 200 µM | > 200 µM | –
83 | O=C(O)CNS(=O)(=O)c1ccc(NC(=O)c2ccccc2[N+](=O)[O-])cc1 | – | – | inactive
84 | CCCCNC(=S)Nc1nc(C(=O)NNC(=S)NCC)cs1 | > 200 µM | > 200 µM | –
85 | Cc1nnc(NS(=O)(=O)c2ccc(N=Nc3c(N)n(C)c(=O)n(C)c3=O)cc2)s1 | – | – | inactive
86 | CC(=O)/C(=C/c1ccc(N(C)C)cc1)c1ccccc1 | > 19.5 µM | > 19.5 µM | –
